The target of one experiment is Mcl-1 (Homo sapiens (Human), UniProt Q07820). The experiment in a line: Fluorescence polarization competition assay (FPCA), Mcl-1 / FITC-Bak BH3 peptide. Format: binding. The settings on record: FPC assay; read-out: Mcl-1 Ki. The text has this:
The tagged protein was initially purified from the crude cell lysate by immobilized metal affinity chromatography (IMAC) chromatography (GE Healthcare Life Sciences), and after dialysis to remove the imidazole the affinity tag was cleaved using PreScission Protease (GE Healthcare Life Sciences). A Sephacryl S-200 size exclusion column was used as a final purification step before the protein was concentrated with a 10,000 MWCO centifugal filter concentrator (Millipore).
Fluorescence polarization experiments were conducted using a BMG PHERAstar FS multimode microplate reader equipped with two PMTs for simultaneous measurements of the perpendicular and parallel fluorescence emission. The assays were performed in black polypropylene 384-well microplate (Costar) with a final volume of 20 microliter. […] Regression analysis was carried out using Origin (OriginLab, Northampton, Mass.) to fit the data to the Hill equation (1) to determine the initial binding affinity (KD) and the IC50 in the FPCA. For the fluorescence polarization competition titrations, an equation derived by Nikolovska-Coleska et al. was used to calculate the Ki from the IC50 data.
The target molecules were assayed for their abilities to disrupt the Mcl-1-Bak-BH3 PPI in a fluorescence polarization competition (FPC) assay with Mcl-1 and FITC-labeled Bak-BH3 peptide. Further details on the FPC assay can be found in the Supporting Information.
Background: In fluorescence polarisation assays a small probe gives low polarisation when free and higher when bound to something large.
Mcl-1, sequence (Q07820 172-327): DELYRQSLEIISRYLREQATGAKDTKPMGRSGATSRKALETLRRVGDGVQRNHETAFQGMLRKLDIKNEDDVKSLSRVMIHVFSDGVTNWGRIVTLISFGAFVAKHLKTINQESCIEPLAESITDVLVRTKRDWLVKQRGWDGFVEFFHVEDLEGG
Take `O=C(O)C1Cc2ccccc2N(S(=O)(=O)c2ccc(Br)cc2)C1` (racemic) [±-8b]: the Ki (in general, the equilibrium dissociation constant of an inhibitor or competing ligand from its target) was found to be 117 µM.

The same experiment, now with this note: FPCA with FITC-Bak; Ki from IC50 by Nikolovska-Coleska equation; listed as 8c; read-out: Mcl-1 Ki.
As for `CC(C)CN(c1ccc(C(=O)O)cc1)S(=O)(=O)c1ccc(-c2ccccc2)cc1` [LC-3-030 8c], the inhibition constant (Ki) worked out at 16.7 µM.

Still in this experiment, the particulars now being: FPCA with FITC-Bak; Ki from IC50 by Nikolovska-Coleska equation; read-out: Mcl-1 Ki.
Take `CC(C)CN(c1cccc(C(=O)O)c1)S(=O)(=O)c1ccc2ccccc2c1` [4jc177-3 18ab]: the Ki stood at 61.7 ± 4.73 µM.
For `O=C(O)C1Cc2ccccc2N(S(=O)(=O)c2ccc(Br)cc2)C1` (racemic) [±-8b], the Ki was 117 ± 19 µM.
Same read-out and setting: the figure for `CC(C)Oc1ccc(NS(=O)(=O)c2cc(C(=O)O)c(O)c3ccccc23)cc1` [Compound 3aa, 1-Hydroxy-4-(N-(4-isopropoxyphenyl)sulfamoyl)-2-naphthoic Acid] is 54 ± 4.6 µM; for `O=C(O)c1ccc2c(c1)CCCN2S(=O)(=O)c1ccc(-c2ccccc2)cc1` [LC-3-002, 1-([1,1′-biphenyl]-4-ylsulfonyl)-1,2,3,4-tetrahydroquinoline-6-carboxylic acid] it is 14 µM; for `O=C(O)c1ccc(N(C2CCCC2)S(=O)(=O)c2ccc3ccccc3c2)cc1O` [LC-4-083 13ba] it is 24.7 ± 9.45 µM.
As to `COc1cc(N(CC(C)C)S(=O)(=O)c2ccc(Oc3ccccc3)cc2)ccc1C(=O)O` [LC-5-106 19], the inhibition constant (Ki) was 107 ± 31.1 µM.
On the same count and under the same terms, the figure for `CC(C)CN(c1cccc(C(=O)O)c1)S(=O)(=O)c1ccc(-c2ccccc2)cc1` [4jc177-4 18ac] is over 500 µM; for `O=C(O)c1ccc2c(c1)CCCN2S(=O)(=O)c1ccc(F)cc1` [LC-3-010, 1-((4-fluorophenyl)sulfonyl)-1,2,3,4-tetrahydroquinoline-6-carboxylic acid] it is over 1000 µM.
Regarding `CC(C)CN(c1ccc(Br)cc1)S(=O)(=O)c1cc(C(=O)O)c(O)c2ccccc12` [Compound 3ca, 4-(N-(4-Bromophenyl)-N-isobutylsulfamoyl)-1-hydroxy-2-naphthoic Acid], the Ki turned out to be 0.566 µM.
On the same count and under the same terms, the figure for `CC(C)CN(c1ccc(C(=O)O)cc1)S(=O)(=O)c1ccc(-c2ccccc2)cc1` [LC-3-030 8c] is 16.7 ± 2.28 µM; for `Cc1cc(Oc2ccc(S(=O)(=O)N(CC(C)C)c3ccc(C(=O)O)cc3)cc2)cc(C)c1Cl` [LC-3-035 8e] it is 2.06 ± 0.118 µM; for `CC(C)CN(c1ccc(C(=O)Oc2ccccc2)c(O)c1)S(=O)(=O)c1ccc(Oc2ccccc2)cc1` [LC-4-134 21] it is over 500 µM.
Still for that read-out and setting: the value for `CC(C)CN(c1cccc(C(=O)O)c1)S(=O)(=O)c1ccccc1` [4jc177-1 18aa] was over 500 µM.
Still for that read-out and setting: the figure for `CC(C)CN(c1ccc(-c2cc(=O)[nH]o2)cc1)S(=O)(=O)c1ccc(Oc2ccccc2)cc1` [LC-5-069Toptop 26] is over 500 µM; for `O=C(O)c1cc(S(=O)(=O)Nc2ccccc2Br)c2ccccc2c1O` [Compound 3m, 4-(N-(2-bromophenyl)sulfamoyl)-1-hydroxy-2-naphthoic Acid] it is 6.84 ± 2.23 µM.
`O=C(O)c1ccc(N(Cc2ccccc2)S(=O)(=O)c2ccc3ccccc3c2)cc1O` [LC-4-113 13ca]: the Ki is 11.4 ± 1.57 µM.
On the same count and under the same terms, the value for `Cc1cc(OCCCN2CC(C(=O)O)Cc3ccccc32)cc(C)c1Cl` (racemic) [±-11] was 7.77 ± 1.39 µM; that for `O=C(O)c1cc(S(=O)(=O)NCc2cccc(Cl)c2)c2ccccc2c1O` [Compound 3e, 4-(N-(3-Chlorobenzyl)sulfamoyl)-1-hydroxy-2-naphthoic Acid] was 5.03 ± 2.78 µM.
Consider `Cc1cc(Oc2ccc(S(=O)(=O)N3CCCc4cc(C(=O)O)ccc43)cc2)cc(C)c1Cl` [LC-3-012, 1-((4-(4-chloro-3,5-dimethylphenoxy)phenyl)sulfonyl)-1,2,3,4-tetrahydroquinoline-6-carboxylic acid], for which the Ki was 0.332 µM.
With `O=C(O)c1cc(S(=O)(=O)Nc2ccc(C(F)(F)F)cc2)c2ccccc2c1O` [Compound 3w, 1-Hydroxy-4-(N-(4-(trifluoromethyl)phenyl)sulfamoyl)-2-naphthoic Acid], the Ki worked out at 2.5 ± 0.65 µM.
On the same count and under the same terms, the value for `O=C(O)c1cc(S(=O)(=O)Nc2cccc(Br)c2)c2ccccc2c1O` [Compound 3n, 4-(N-(3-Bromophenyl)sulfamoyl)-1-hydroxy-2-naphthoic Acid] was 5.64 ± 1.76 µM; that for `Cc1cc(C)cc(Oc2ccc(S(=O)(=O)N(CC(C)C)c3ccc(C(=O)O)c(O)c3)cc2)c1` [LC-4-100 13ai] was 2.96 ± 0.286 µM.
Same read-out and setting: the figure for `O=C(O)c1cc(S(=O)(=O)Nc2ccc(Oc3ccccc3)cc2)c2ccccc2c1O` [Compound 3bb, 1-Hydroxy-4-(N-(4-phenoxyphenyl)sulfamoyl)-2-naphthoic Acid] is 1.15 ± 0.28 µM.
Same read-out and setting: the figure for `CC(C)c1ccc(NS(=O)(=O)c2cc(C(=O)O)c(O)c3ccccc23)cc1` [Compound 3y, 1-Hydroxy-4-(N-(4-isopropylphenyl)sulfamoyl)-2-naphthoic Acid] is 3.86 ± 1.53 µM; for `CN(C)S(=O)(=O)c1cc(C(=O)O)c(O)c2ccccc12` [Compound 3h, 4-(N,N-Dimethylsulfamoyl)-1-hydroxy-2-naphthoic Acid] it is 25.7 ± 4.86 µM.

Staying with this experiment, now noted: fluorescence polarization competition assay; read-out: Ki (μM) Mcl-1.
For the compound `Cc1cc(Oc2ccc(S(=O)(=O)N(CC(C)C)c3ccc(C(=O)O)cc3)cc2)cc(C)c1Cl` [LC-3-035, 4-(4-(4-chloro-3,5-dimethylphenoxy)-N-isobutylphenylsulfonamido)benzoic acid], the Ki turned out to be 0.261 ± 0.558 µM.
Same read-out and setting: the value for `CC(C)CN(c1ccc(C(=O)O)c(O)c1)S(=O)(=O)c1ccc(-c2ccccc2)cc1` [Compound 4jc117-4, 2-hydroxy-4-(N-isobutyl-[1,1′-biphenyl]-4-ylsulfonamido)benzoic acid] was 7.87 ± 0.263 µM.

The same experiment, now with this note: read-out: Mcl-1 Ki.
With `O=C(O)C1Cc2ccccc2N(S(=O)(=O)c2ccc(F)cc2)C1` (racemic) [SF-5-136, (±)-1-((4-fluorophenyl)sulfonyl)-1,2,3,4-tetrahydroquinoline-3-carboxylic acid], the Ki was over 1000 µM.
On to `Cc1cc(Oc2ccc(S(=O)(=O)N3CC(C(=O)O)Cc4ccccc43)cc2)cc(C)c1Cl` (racemic) [SF-5-141, (±)-1-((4-(4-chloro-3,5-dimethylphenoxy)phenyl)sulfonyl)-1,2,3,4-tetrahydroquinoline-3-carboxylic acid], for which the Ki came out at 0.286 µM.
As for `Cc1ccc(S(=O)(=O)N(CC(C)C)c2ccc(C(=O)O)c(O)c2)cc1` [Compound 4jc117-2, 2-hydroxy-4-(N-isobutyl-4-methylphenylsulfonamido)benzoic acid], the Ki is 302 ± 31.8 µM.

Still in this experiment, the particulars now being: ΔG=−RTlnKi from experimental Ki.
On to `O=C(O)c1cc(S(=O)(=O)NCc2ccccc2)c2ccccc2c1O` [3c; SF-5-311], for which the “Mcl-1 Exp ΔG” value is -5.79 kcal/mol.
As for `CC(C)c1ccc(NS(=O)(=O)c2cc(C(=O)O)c(O)c3ccccc23)cc1` [3y; 5JC74-2], the “Mcl-1 Exp ΔG” value was -7.38 kcal/mol.
Still for that read-out and setting: the value for `CN(C)S(=O)(=O)c1cc(C(=O)O)c(O)c2ccccc12` [3h; SF-5-295] was -6.26 kcal/mol.
Same read-out and setting: the value for `O=C(O)c1cc(S(=O)(=O)Nc2cccc(Br)c2)c2ccccc2c1O` [3n; TA-1-020] was -7.16 kcal/mol.
The same measure, in the same setting: the figure for `O=C(O)c1cc(S(=O)(=O)Nc2ccccc2Br)c2ccccc2c1O` [3m; TA-1-019] is -7.04 kcal/mol; for `O=C(O)c1cc(S(=O)(=O)Nc2ccccc2-c2ccccc2)c2ccccc2c1O` [3r; LC-4-002] it is -6.91 kcal/mol; for `N#Cc1cccc(NS(=O)(=O)c2cc(C(=O)O)c(O)c3ccccc23)c1` [3ad; 5JC75-2] it is -6.23 kcal/mol.
On to `CC(C)CN(c1ccc(Br)cc1)S(=O)(=O)c1cc(C(=O)O)c(O)c2ccccc12` [Compound 3ca, 4-(N-(4-Bromophenyl)-N-isobutylsulfamoyl)-1-hydroxy-2-naphthoic Acid], for which the “Mcl-1 Exp ΔG” value was -8.52 kcal/mol.
For `O=C(O)c1cc(S(=O)(=O)Nc2ccc(C(F)(F)F)cc2)c2ccccc2c1O` [3w; 5JC73-1], the “Mcl-1 Exp ΔG” value is -7.64 kcal/mol.
With `N#Cc1ccc(NS(=O)(=O)c2cc(C(=O)O)c(O)c3ccccc23)cc1` [3ab; TA-1-018], the “Mcl-1 Exp ΔG” value is -6.35 kcal/mol.

(Values after patent publication US10858316B2, “Small molecule inhibitors of the MCL-1 oncoprotein and uses thereof” (University of Maryland, Baltimore, priority 2015, dated 2020).)
